According to patent US20080261994A1, “CYCLOPROPANE COMPOUNDS AND PHARMACEUTICAL USE THEREOF” (Japan Tobacco Inc., priority 2003, published 2008):
pIC50: −log10 of the molar value.

How the values were obtained:
Format in all cases: biochemical
[1] = biological target: T1, MMP-1 (Homo sapiens, UniProt P03956); test: MMP-1 inhibitory action (Type I collagen Activity Measurement kit, FITC-labeled collagen type I); conditions: MMP-1 inhibitory action, FITC-labeled collagen type I, 37° C. for 3 hr; read-out: IC50 MMP1 (Experimental Example 2)
T1 sequence (P03956 100-469): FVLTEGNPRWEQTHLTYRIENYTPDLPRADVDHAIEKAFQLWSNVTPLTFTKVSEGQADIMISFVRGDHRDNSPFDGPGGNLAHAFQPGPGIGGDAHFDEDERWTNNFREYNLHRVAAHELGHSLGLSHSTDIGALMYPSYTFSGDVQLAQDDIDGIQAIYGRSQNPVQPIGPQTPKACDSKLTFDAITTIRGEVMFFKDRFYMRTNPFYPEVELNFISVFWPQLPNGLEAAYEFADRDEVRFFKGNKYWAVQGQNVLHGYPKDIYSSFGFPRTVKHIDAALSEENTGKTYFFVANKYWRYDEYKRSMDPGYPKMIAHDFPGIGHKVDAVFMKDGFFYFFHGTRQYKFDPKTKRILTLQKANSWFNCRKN

[2] = biological target: T2, Recombinant Human MMP-13 (Homo sapiens, UniProt P45452); test: MMP-13 inhibitory activity (MMP-13 specific fluorescent substrate with quencher); conditions: Recombinant Human MMP-13, fluorescent substrate, 25° C. for 1 h; read-out: IC50 MMP13 (Experimental Example 3)
T2 construct: purchased R&D systems 511-MM
Method in brief: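 Recombinant human MMP-13 with test compound, reaction started with quenched fluorogenic peptide 7-MCA-Pro-CHA-Gly-NVal-His-Ala-DPA in Tris-HCl buffer, 1 h at 25 °C, stopped with acetic acid. Fluorescence at Ex 325/Em 405 nm; % inhibition versus enzyme-free and inhibitor-free wells, reported as IC50 (μM).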

[3] = biological target: T3, aggrecanase-1 (Homo sapiens, UniProt O75173); test: Aggrecanase-1 inhibitory action (Particle Assay, GAG release from aggrecan-containing polyacrylamide particles); conditions: aggrecanase-1 inhibitory action; read-out: IC50 AG1 (Experimental Example 1)
T3 sequence (O75173 213-837): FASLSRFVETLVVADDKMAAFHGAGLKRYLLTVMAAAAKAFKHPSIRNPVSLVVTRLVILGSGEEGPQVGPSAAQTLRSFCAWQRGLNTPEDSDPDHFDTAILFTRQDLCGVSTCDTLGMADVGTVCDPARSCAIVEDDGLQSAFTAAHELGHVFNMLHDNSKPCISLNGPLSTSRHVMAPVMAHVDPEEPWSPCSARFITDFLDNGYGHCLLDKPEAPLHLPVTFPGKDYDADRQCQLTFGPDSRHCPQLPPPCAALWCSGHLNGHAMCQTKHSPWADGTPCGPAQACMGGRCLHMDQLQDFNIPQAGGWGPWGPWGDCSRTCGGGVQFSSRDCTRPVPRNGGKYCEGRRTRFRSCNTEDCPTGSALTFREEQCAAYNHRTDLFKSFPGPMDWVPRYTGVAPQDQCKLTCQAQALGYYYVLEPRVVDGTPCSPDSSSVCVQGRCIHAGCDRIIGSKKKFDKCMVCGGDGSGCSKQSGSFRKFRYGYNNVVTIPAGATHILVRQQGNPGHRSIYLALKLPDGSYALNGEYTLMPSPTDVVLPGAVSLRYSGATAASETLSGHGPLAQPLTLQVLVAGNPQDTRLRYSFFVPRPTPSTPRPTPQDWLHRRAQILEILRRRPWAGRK
Method in brief: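 Enzyme and compound incubated with aggrecan-containing polyacrylamide particles in Tris-HCl buffer at 37° C for 15 h. Released GAG in supernatant measured with 1,9-dimethylmethylene blue at 595 nm against chondroitin sulfate standard; % inhibition from enzyme-free and inhibitor-free wells, reported as TC50 (μM).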

pIC50 [1] | pIC50 [2] | pIC50 [3] | SMILES
≤ 5.00 | > 6.00 | > 6.00 | CC(=O)N1Cc2ccccc2C2(C1)CC2(NS(=O)(=O)c1ccc(-c2ccc(Cl)cc2)s1)C(=O)O (stereo not drawn) [Example 2-207]
≤ 6.00 | > 7.00 | > 7.00 | COC(=O)CCc1cccc(C2CC2(NS(=O)(=O)c2ccc(-c3ccc(Cl)cc3)s2)C(=O)O)c1 (stereo not drawn) [Example 2-208]
≤ 6.00 | > 7.00 | > 7.00 | O=C(CCc1cccc(C2CC2(NS(=O)(=O)c2ccc(-c3ccc(Cl)cc3)s2)C(=O)O)c1)N1CCOCC1 (stereo not drawn) [Example 2-209]
≤ 5.00 | > 7.00 | > 6.00 | CN1CCN(C(=O)CCc2cccc(C3CC3(NS(=O)(=O)c3ccc(-c4ccc(Cl)cc4)s3)C(=O)O)c2)CC1 (stereo not drawn) [Example 2-210]
≤ 5.00 | > 7.00 | > 7.00 | O=C(CCc1cccc(C2CC2(NS(=O)(=O)c2ccc(-c3ccc(Cl)cc3)s2)C(=O)O)c1)N1CCSCC1 (stereo not drawn) [Example 2-211]
≤ 6.00 | > 6.00 | > 7.00 | O=C(O)Cc1cccc(C2CC2(NS(=O)(=O)c2ccc(-c3cc(C(F)(F)F)on3)s2)C(=O)O)c1 (stereo not drawn) [Example 2-212]
> 6.00 | > 7.00 | > 7.00 | O=C(O)C1(NS(=O)(=O)c2ccc(-c3cc(C(F)(F)F)on3)s2)CC1c1cccc(NCc2cccnc2)c1 (stereo not drawn) [Example 2-213]
> 6.00 | > 7.00 | > 7.00 | CN(Cc1cccnc1)c1cccc(C2CC2(NS(=O)(=O)c2ccc(-c3cc(C(F)(F)F)on3)s2)C(=O)O)c1 (stereo not drawn) [Example 2-214]
≤ 5.00 | > 6.00 | > 7.00 | CN(C)C(=O)c1ccccc1C1CC1(NS(=O)(=O)c1ccc(-c2ccc(Cl)cc2)s1)C(=O)O (stereo not drawn) [Example 2-215]
≤ 5.00 | > 6.00 | > 6.00 | CN1CCN(C(=O)c2ccccc2C2CC2(NS(=O)(=O)c2ccc(-c3ccc(Cl)cc3)s2)C(=O)O)CC1 (stereo not drawn) [Example 2-216]
≤ 5.00 | > 6.00 | > 6.00 | CC(C)(C)OC(=O)Nc1ccccc1C1CC1(NS(=O)(=O)c1ccc(-c2ccc(Cl)cc2)s1)C(=O)O (stereo not drawn) [Example 2-217]
≤ 6.00 | > 7.00 | > 6.00 | COC(=O)Cc1cccc(C2CC2(NS(=O)(=O)c2ccc(-c3cc(C(F)(F)F)on3)s2)C(=O)O)c1 (stereo not drawn) [Example 2-219]
≤ 6.00 | > 7.00 | > 7.00 | O=C(Cc1cccc(C2CC2(NS(=O)(=O)c2ccc(-c3cc(C(F)(F)F)on3)s2)C(=O)O)c1)N1CCOCC1 (stereo not drawn) [Example 2-220]
≤ 6.00 | > 7.00 | > 6.00 | CN1CCN(C(=O)Cc2cccc(C3CC3(NS(=O)(=O)c3ccc(-c4cc(C(F)(F)F)on4)s3)C(=O)O)c2)CC1 (stereo not drawn) [Example 2-221]
≤ 6.00 | > 7.00 | > 7.00 | O=C(Cc1cccc(C2CC2(NS(=O)(=O)c2ccc(-c3cc(C(F)(F)F)on3)s2)C(=O)O)c1)N1CCC(O)CC1 (stereo not drawn) [Example 2-222]
≤ 5.00 | > 6.00 | > 6.00 | CN(C)CCC(=O)Nc1cccc(C2CC2(NS(=O)(=O)c2ccc(-c3ccc(Cl)cc3)s2)C(=O)O)c1 (stereo not drawn) [Example 2-223]
≤ 6.00 | > 7.00 | > 7.00 | O=C(CCc1cccc(C2CC2(NS(=O)(=O)c2ccc(-c3ccc(Cl)cc3)s2)C(=O)O)c1)N1CCC(O)CC1 (stereo not drawn) [Example 2-224]
≤ 5.00 | > 6.00 | ≤ 6.00 | O=C(O)C1(NS(=O)(=O)c2ccc(-c3ccc(Cl)cc3)s2)CC1c1ccc(OCc2ccccc2)cc1 (stereo not drawn) [Example 2-225]

pIC50 [1] | pIC50 [2] | pIC50 [3] | SMILES
≤ 5.00 | > 6.00 | > 6.00 | O=C(O)C1(NS(=O)(=O)c2ccc(-c3ccc(Cl)cc3)s2)CC1c1ccc(CO)cc1 (stereo not drawn) [Example 2-226]
≤ 6.00 | > 6.00 | > 7.00 | O=C(O)C1(NS(=O)(=O)c2ccc(-c3ccc(Cl)cc3)s2)CC1(CCCO)c1ccccc1 (stereo not drawn) [Example 2-227]
≤ 6.00 | > 6.00 | > 6.00 | CN(C)c1cccc(C2CC2(NS(=O)(=O)c2ccc(-c3cc(C(F)(F)F)on3)s2)C(=O)O)c1 (stereo not drawn) [Example 2-228]
≤ 5.00 | > 6.00 | > 6.00 | O=C(O)C1(NS(=O)(=O)c2ccc(-c3ccc(Cl)cc3)s2)CC1(CO)c1ccccc1 (stereo not drawn) [Example 2-229]
≤ 5.00 | > 7.00 | > 6.00 | O=C(CCc1ccccc1C1CC1(NS(=O)(=O)c1ccc(-c2cc(C(F)(F)F)on2)s1)C(=O)O)N1CCOCC1 (stereo not drawn) [Example 2-230]
≤ 6.00 | > 7.00 | > 6.00 | CN(C)C(=O)CCc1ccccc1C1CC1(NS(=O)(=O)c1ccc(-c2cc(C(F)(F)F)on2)s1)C(=O)O (stereo not drawn) [Example 2-231]
≤ 6.00 | > 7.00 | > 6.00 | CN1CCN(C(=O)CCc2ccccc2C2CC2(NS(=O)(=O)c2ccc(-c3cc(C(F)(F)F)on3)s2)C(=O)O)CC1 (stereo not drawn) [Example 2-232]
≤ 6.00 | > 7.00 | > 6.00 | O=C(Cc1cccc(C2CC2(NS(=O)(=O)c2ccc(-c3cc(C(F)(F)F)on3)s2)C(=O)O)c1)N[C@H]1CC[C@H](O)CC1 (stereo partly drawn) [Example 2-233]
≤ 6.00 | > 7.00 | > 7.00 | O=C(CCc1cccc(C2CC2(NS(=O)(=O)c2ccc(-c3cc(C(F)(F)F)on3)s2)C(=O)O)c1)N1CCOCC1 (stereo not drawn) [Example 2-234]
≤ 6.00 | > 7.00 | > 6.00 | CN1CCN(C(=O)CCc2cccc(C3CC3(NS(=O)(=O)c3ccc(-c4cc(C(F)(F)F)on4)s3)C(=O)O)c2)CC1 (stereo not drawn) [Example 2-235]
≤ 6.00 | > 7.00 | > 6.00 | O=C(O)C1(NS(=O)(=O)c2ccc(-c3cc(C(F)(F)F)on3)s2)CC1c1cccc(CCCO)c1 (stereo not drawn) [Example 2-236]
≤ 6.00 | > 7.00 | > 7.00 | CC1C(c2ccccc2)C1(NS(=O)(=O)c1ccc(-c2ccc(Cl)cc2)s1)C(=O)O (stereo not drawn) [Example 2-237]
≤ 6.00 | > 7.00 | > 6.00 | CN1CCN(C(=O)OCCCc2cccc(C3CC3(NS(=O)(=O)c3ccc(-c4cc(C(F)(F)F)on4)s3)C(=O)O)c2)CC1 (stereo not drawn) [Example 2-238]
≤ 6.00 | > 7.00 | > 7.00 | O=C(OCCCc1cccc(C2CC2(NS(=O)(=O)c2ccc(-c3cc(C(F)(F)F)on3)s2)C(=O)O)c1)N1CCOCC1 (stereo not drawn) [Example 2-239]
≤ 6.00 | > 6.00 | > 6.00 | O=C(O)C1(NS(=O)(=O)c2ccc(-c3cc(C(F)(F)F)on3)s2)CC1c1ccccc1CCO (stereo not drawn) [Example 2-240]
≤ 6.00 | > 7.00 | > 6.00 | Cc1cnn(-c2ccc(S(=O)(=O)N[C@@]3(C(=O)O)C[C@@H]3c3ccccc3)s2)c1 [Example 2-241]
≤ 6.00 | > 7.00 | > 7.00 | O=C(OCCc1ccccc1C1CC1(NS(=O)(=O)c1ccc(-c2cc(C(F)(F)F)on2)s1)C(=O)O)N1CCOCC1 (stereo not drawn) [Example 2-242]
≤ 6.00 | > 7.00 | > 6.00 | O=C(Cc1ccccc1C1CC1(NS(=O)(=O)c1ccc(-c2cc(C(F)(F)F)on2)s1)C(=O)O)N1CCOCC1 (stereo not drawn) [Example 2-243]
